Experimental data taken from the supplement of paper PMC6045584.
± gives the standard deviation of the averaged measurements.

Key:
CARBOPLATIN [1] = compound: T1, O=C(O)C1(C(=O)O)CCC1.[NH2-].[NH2-].[Pt+2] [CARBOPLATIN]; experiment: area under dose-response curve of surviving fraction (unscaled, Aref=0) (surviving fraction x log10(nM)); higher = more resistant; conditions: exposure time: 5 days; dose range 0.5-1000 nM
In short: (§1)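 Inhibitor was applied to tumour cell lines at eight concentrations (0.5 to 1000 nM) for five days in 384-well plates. Luminescence from CellTiter-Glo, scaled to DMSO-only wells, gave surviving fractions in three screens per line, and these were fitted by 3-parameter logistic regression with the drc R package. The area under the curve is an unscaled activity area. Aref was 0, and dose was on a log10 scale.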

PACLITAXEL [2] = compound: T2, CC(=O)O[C@H]1C(=O)[C@@]2(C)[C@H]([C@H](OC(=O)c3ccccc3)[C@]3(O)C[C@H](OC(=O)[C@H](O)[C@@H](NC(=O)c4ccccc4)c4ccccc4)C(C)=C1C3(C)C)[C@]1(OC(C)=O)CO[C@@H]1C[C@@H]2O [PACLITAXEL]; experiment: as above; conditions: exposure time: 5 days; dose range 0.5-1000 nM
In short: as §1

[3] = compound: CC(=O)NCC(=O)N1[C@@H]2CC[C@H]1c1ccc(Nc3ncc(C(F)(F)F)c(NC4CCC4)n3)cc12; experiment: as above; conditions: exposure time: 5 days; dose range 0.5-1000 nM
In short: as §1

CAMPTOTHECIN [4] = compound: T3, CC[C@@]1(O)C(=O)OCc2c1cc1n(c2=O)Cc2cc3ccccc3nc2-1 [CAMPTOTHECIN]; experiment: as above; conditions: exposure time: 5 days; dose range 0.5-1000 nM
In short: as §1

YM155 [5] = compound: T4, COCC[n+]1c2c(n(Cc3cnccn3)c1C)C(=O)c1ccccc1C2=O [YM155]; experiment: as above; conditions: exposure time: 5 days; dose range 0.5-1000 nM
In short: as §1

CELECOXIB [6] = compound: T5, Cc1ccc(-c2cc(C(F)(F)F)nn2-c2ccc(S(N)(=O)=O)cc2)cc1 [CELECOXIB]; experiment: as above; conditions: exposure time: 5 days; dose range 0.5-1000 nM
In short: as §1

[7] = compound: CC(=O)c1c(C)c2cnc(Nc3ccc(N4CCNCC4)cn3)nc2n(C2CCCC2)c1=O; experiment: as above; conditions: exposure time: 5 days; dose range 0.5-1000 nM
In short: as §1

OSI-906 [8] = compound: T6, C[C@]1(O)C[C@@H](c2nc(-c3ccc4ccc(-c5ccccc5)nc4c3)c3c(N)nccn32)C1 [OSI-906]; experiment: as above; conditions: exposure time: 5 days; dose range 0.5-1000 nM
In short: as §1

CARBOPLATIN [9] = compound: T1, CARBOPLATIN; experiment: surviving fraction relative to DMSO-only wells; higher = less growth inhibition; conditions: exposure time: 5 days
In short: (§2)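 Log-phase tumour cells were seeded at 250–500 per well in 384-well plates and, from 24 hours after seeding, exposed continuously for five days to inhibitors at 0.5, 1, 5, 10, 50, 100, 500 and 1000 nM. Surviving fraction is CellTiter-Glo luminescence normalised to the median of DMSO-only wells. Luminescence was measured after 10 minutes at room temperature, and only lines screened three times with replicate Pearson r >0.7 and median Z' >0.3 were kept.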

PACLITAXEL [10] = compound: T2, PACLITAXEL; experiment: as above; conditions: exposure time: 5 days
In short: as §2

[11] = compound: CC(=O)NCC(=O)N1[C@@H]2CC[C@H]1c1ccc(Nc3ncc(C(F)(F)F)c(NC4CCC4)n3)cc12; experiment: as above; conditions: exposure time: 5 days
In short: as §2

CAMPTOTHECIN [12] = compound: T3, CAMPTOTHECIN; experiment: as above; conditions: exposure time: 5 days
In short: as §2

YM155 [13] = compound: T4, YM155; experiment: as above; conditions: exposure time: 5 days
In short: as §2

CELECOXIB [14] = compound: T5, CELECOXIB; experiment: as above; conditions: exposure time: 5 days
In short: as §2

GEFITINIB = compound: COc1cc2ncnc(Nc3ccc(F)c(Cl)c3)c2cc1OCCCN1CCOCC1 [GEFITINIB]; experiment: as above; conditions: exposure time: 5 days
In short: as §2

[15] = compound: CC(=O)c1c(C)c2cnc(Nc3ccc(N4CCNCC4)cn3)nc2n(C2CCCC2)c1=O; experiment: as above; conditions: exposure time: 5 days
In short: as §2

OSI-906 [16] = compound: T6, OSI-906; experiment: as above; conditions: exposure time: 5 days
In short: as §2

## HCC70 BREAST
CARBOPLATIN [1]
  area under dose-response curve: 3.56
PACLITAXEL [2]
  area under dose-response curve: 0.799
[3]
  area under dose-response curve: 2.46
CAMPTOTHECIN [4]
  area under dose-response curve: 1.9
YM155 [5]
  area under dose-response curve: 2.27
CELECOXIB [6]
  area under dose-response curve: 3.62
[7]
  area under dose-response curve: 3.53
OSI-906 [8]
  area under dose-response curve: 3.29
CARBOPLATIN [9]; 0.5 nM
  surviving fraction: 1.04 ± 0.049
CARBOPLATIN [9]; 1 nM
  surviving fraction: 1.07 ± 0.078
CARBOPLATIN [9]; 5 nM
  surviving fraction: 1.13 ± 0.14
CARBOPLATIN [9]; 10 nM
  surviving fraction: 1.13 ± 0.05
CARBOPLATIN [9]; 50 nM
  surviving fraction: 1.19 ± 0.064
CARBOPLATIN [9]; 100 nM
  surviving fraction: 0.999 ± 0.049
CARBOPLATIN [9]; 500 nM
  surviving fraction: 1.06 ± 0.082
CARBOPLATIN [9]; 1000 nM
  surviving fraction: 1.02 ± 0.054
PACLITAXEL [10]; 0.5 nM
  surviving fraction: 0.937 ± 0.071
PACLITAXEL [10]; 1 nM
  surviving fraction: 0.81 ± 0.07
PACLITAXEL [10]; 5 nM
  surviving fraction: 0.218 ± 0.029
PACLITAXEL [10]; 10 nM
  surviving fraction: 0.102 ± 0.019
PACLITAXEL [10]; 50 nM
  surviving fraction: 0.099 ± 0.032
PACLITAXEL [10]; 100 nM
  surviving fraction: 0.0517 ± 0.014
PACLITAXEL [10]; 500 nM
  surviving fraction: 0.0543 ± 0.015
PACLITAXEL [10]; 1000 nM
  surviving fraction: 0.0647 ± 0.031
[11]; 0.5 nM
  surviving fraction: 0.976 ± 0.052
[11]; 1 nM
  surviving fraction: 1.03 ± 0.057
[11]; 5 nM
  surviving fraction: 0.982 ± 0.099
[11]; 10 nM
  surviving fraction: 1.01 ± 0.033
[11]; 50 nM
  surviving fraction: 0.864 ± 0.051
[11]; 100 nM
  surviving fraction: 0.488 ± 0.026
[11]; 500 nM
  surviving fraction: 0.243 ± 0.052
[11]; 1000 nM
  surviving fraction: 0.203 ± 0.036
CAMPTOTHECIN [12]; 0.5 nM
  surviving fraction: 0.905 ± 0.12
CAMPTOTHECIN [12]; 1 nM
  surviving fraction: 1.04 ± 0.029
CAMPTOTHECIN [12]; 5 nM
  surviving fraction: 0.958 ± 0.092
CAMPTOTHECIN [12]; 10 nM
  surviving fraction: 0.63 ± 0.044
CAMPTOTHECIN [12]; 50 nM
  surviving fraction: 0.443 ± 0.045
CAMPTOTHECIN [12]; 100 nM
  surviving fraction: 0.385 ± 0.015
CAMPTOTHECIN [12]; 500 nM
  surviving fraction: 0.119 ± 0.061
CAMPTOTHECIN [12]; 1000 nM
  surviving fraction: 0.0573 ± 0.0076
YM155 [13]; 0.5 nM
  surviving fraction: 1.09 ± 0.1
YM155 [13]; 1 nM
  surviving fraction: 1.04 ± 0.11
YM155 [13]; 5 nM
  surviving fraction: 1.01 ± 0.11
YM155 [13]; 10 nM
  surviving fraction: 0.934 ± 0.069
YM155 [13]; 50 nM
  surviving fraction: 0.632 ± 0.049
YM155 [13]; 100 nM
  surviving fraction: 0.515 ± 0.044
YM155 [13]; 500 nM
  surviving fraction: 0.135 ± 0.023
YM155 [13]; 1000 nM
  surviving fraction: 0.068 ± 0.007
CELECOXIB [14]; 0.5 nM
  surviving fraction: 1.07 ± 0.049
CELECOXIB [14]; 1 nM
  surviving fraction: 1.045 ± 0.0081
CELECOXIB [14]; 5 nM
  surviving fraction: 1.08 ± 0.067
CELECOXIB [14]; 10 nM
  surviving fraction: 1.13 ± 0.091
CELECOXIB [14]; 50 nM
  surviving fraction: 1.06 ± 0.044
CELECOXIB [14]; 100 nM
  surviving fraction: 1.04 ± 0.099
CELECOXIB [14]; 500 nM
  surviving fraction: 1.2 ± 0.14
CELECOXIB [14]; 1000 nM
  surviving fraction: 1.18 ± 0.038
GEFITINIB; 0.5 nM
  surviving fraction: 1.03 ± 0.13
GEFITINIB; 1 nM
  surviving fraction: 0.976 ± 0.048
GEFITINIB; 5 nM
  surviving fraction: 1.15 ± 0.14
GEFITINIB; 10 nM
  surviving fraction: 1.02 ± 0.075
GEFITINIB; 50 nM
  surviving fraction: 1.03 ± 0.042
GEFITINIB; 100 nM
  surviving fraction: 1.01 ± 0.088
GEFITINIB; 500 nM
  surviving fraction: 0.815 ± 0.048
GEFITINIB; 1000 nM
  surviving fraction: 0.848 ± 0.068
[15]; 0.5 nM
  surviving fraction: 1.02 ± 0.051
[15]; 1 nM
  surviving fraction: 0.999 ± 0.056
[15]; 5 nM
  surviving fraction: 1.13 ± 0.032
[15]; 10 nM
  surviving fraction: 1.05 ± 0.034
[15]; 50 nM
  surviving fraction: 1.155 ± 0.0084
[15]; 100 nM
  surviving fraction: 1.08 ± 0.08
[15]; 500 nM
  surviving fraction: 0.983 ± 0.066
[15]; 1000 nM
  surviving fraction: 1.1 ± 0.055
OSI-906 [16]; 0.5 nM
  surviving fraction: 0.861 ± 0.13
OSI-906 [16]; 1 nM
  surviving fraction: 1.02 ± 0.099
OSI-906 [16]; 5 nM
  surviving fraction: 1.04 ± 0.081
OSI-906 [16]; 10 nM
  surviving fraction: 1.02 ± 0.055
OSI-906 [16]; 50 nM
  surviving fraction: 1.04 ± 0.018
OSI-906 [16]; 100 nM
  surviving fraction: 1.08 ± 0.017
OSI-906 [16]; 500 nM
  surviving fraction: 1 ± 0.053
OSI-906 [16]; 1000 nM
  surviving fraction: 0.924 ± 0.11
